Reference: patent publication US20240226066A1, “CARDIOPROTECTION BY AUTOPHAGY INDUCTION AND METABOLIC REPROGRAMMING” (UNIVERSITE PARIS-SACLAY, priority 2021, published 2024)
Like-named read-outs stand apart in the source and are kept apart here.

Key:
[1] = biological target: T1, hERG potassium channel (Homo sapiens, UniProt Q12809); assay: hERG channel binding assay ([3H]dofetilide displacement); conditions: for inhibition at 10 µM: human, probe [3H]dofetilide
T1 construct: Eurofins
Method: The evaluation of the binding of the compounds to the human hERG potassium channel was carried out as described previously (Eurofins).
Since the blocking of the human potassium channel hERG channel may be responsible for cardiac fibrillation leading to cardiac arrest and death of the patient, the binding of the 3 molecules SG6163F, VP331 and LOPA87 to this receptor was evaluated.

[2] = system: H9C2 cells; assay: Exogenous fatty acid oxidation (XF palmitate-BSA FAO substrate with mito stress test); type: cell-based, rat; conditions: fatty acids as substrate
Method: FIG. 8C: the oxidation of the exogenous fatty acids was measured simultaneously using the XF palmitate-BSA FAO substrate kit with the mito stress test on XF cells. Before starting the test, 30 μL of XF palmitate-BSA CAM or BSA control substrate were added to the appropriate wells.
The XFe96 extracellular flow analyzer (Seahorse Biosciences, North Billerica, MA, USA) was used to measure the bioenergetic function of H9C2 cardiomyocytes. The H9C2 cells were seeded at 20 000 cells per well in XF96 cell culture microplates; all the pretreatments were carried out with serum-free cell culture medium. The Agilent Seahorse XF glycolysis stress test was performed to measure glycolytic function in the H9C2 cells; the extracellular acidification rate (ECAR) was measured sequentially by 3 injections, 10 mM glucose, 2 μM oligomycin and 50 mM 2-deoxy-D-glucose (2-DG). The Agilent Seahorse XF Cell Mito stress test measured key parameters of mitochondrial function by directly measuring the oxygen consumption rate (OCR) of the H9C2 cells. […] The oxidation of the exogenous fatty acids was measured simultaneously using the XF palmitate-BSA FAO substrate kit with the mitochondrial stress test on XF cells. […]
Next, the energy metabolism was analyzed in real time using the Seahorse technology in H9C2 cells.

[3] = system: RNVCs; assay: Mitochondrial ROS production with MitoSOX fluorescent probe; type: cell-based, rat; conditions: 1 μM, 6 h
Method: FIG. 12: The RNVCs were treated with 0.1% DMSO, 3 μM rapamycin, 1 μM digitoxigenin, 1 μM digoxin, 1 μM minaprin, 1 μM VP331, 1 μM LOPA87, 10 μM SG6163F for 6 h, then the ROS production was stained with the MitoSOX fluorescent probe.
The RNVCs were treated with 0.01% DMSO, 3 μM rapamycin, […], 1 μM digoxin, 1 μM minaprine, 1 μM VP331, 1 μM LOPA87, 10 μM SG6163F in a serum-free cell culture medium for 6 hours. The contents (50 μg) of a MitoSOX™ mitochondrial superoxide indicator vial (ThermoFisher, M36008) were dissolved in 13 μl dimethyl sulfoxide (DMSO) to prepare a 5 mM MitoSOX™ reagent stock solution. Next, the 5 mM MitoSOX™ reagent stock solution in PBS was diluted to prepare a 5 μM working solution of MitoSOX™ reagent. After treatment, the cells were rinsed twice with hot PBS and then incubated with a MitoSOX reagent working solution for 10 minutes at 37° C. The cells were gently rinsed three times with hot PBS. Red fluorescence was detected with a Leica confocal microscope. Nuclear fluorescence was suppressed and mitochondrial fluorescence intensity was measured using ImageJ software.
ROSs are produced or accumulated as a by-product of mitochondrial activity metabolism. Thus, the ROSs may be a consequence of mitochondrial function or may reflect a defect in the mitochondrial antioxidant system.

T1 sequence (Q12809 whole entry): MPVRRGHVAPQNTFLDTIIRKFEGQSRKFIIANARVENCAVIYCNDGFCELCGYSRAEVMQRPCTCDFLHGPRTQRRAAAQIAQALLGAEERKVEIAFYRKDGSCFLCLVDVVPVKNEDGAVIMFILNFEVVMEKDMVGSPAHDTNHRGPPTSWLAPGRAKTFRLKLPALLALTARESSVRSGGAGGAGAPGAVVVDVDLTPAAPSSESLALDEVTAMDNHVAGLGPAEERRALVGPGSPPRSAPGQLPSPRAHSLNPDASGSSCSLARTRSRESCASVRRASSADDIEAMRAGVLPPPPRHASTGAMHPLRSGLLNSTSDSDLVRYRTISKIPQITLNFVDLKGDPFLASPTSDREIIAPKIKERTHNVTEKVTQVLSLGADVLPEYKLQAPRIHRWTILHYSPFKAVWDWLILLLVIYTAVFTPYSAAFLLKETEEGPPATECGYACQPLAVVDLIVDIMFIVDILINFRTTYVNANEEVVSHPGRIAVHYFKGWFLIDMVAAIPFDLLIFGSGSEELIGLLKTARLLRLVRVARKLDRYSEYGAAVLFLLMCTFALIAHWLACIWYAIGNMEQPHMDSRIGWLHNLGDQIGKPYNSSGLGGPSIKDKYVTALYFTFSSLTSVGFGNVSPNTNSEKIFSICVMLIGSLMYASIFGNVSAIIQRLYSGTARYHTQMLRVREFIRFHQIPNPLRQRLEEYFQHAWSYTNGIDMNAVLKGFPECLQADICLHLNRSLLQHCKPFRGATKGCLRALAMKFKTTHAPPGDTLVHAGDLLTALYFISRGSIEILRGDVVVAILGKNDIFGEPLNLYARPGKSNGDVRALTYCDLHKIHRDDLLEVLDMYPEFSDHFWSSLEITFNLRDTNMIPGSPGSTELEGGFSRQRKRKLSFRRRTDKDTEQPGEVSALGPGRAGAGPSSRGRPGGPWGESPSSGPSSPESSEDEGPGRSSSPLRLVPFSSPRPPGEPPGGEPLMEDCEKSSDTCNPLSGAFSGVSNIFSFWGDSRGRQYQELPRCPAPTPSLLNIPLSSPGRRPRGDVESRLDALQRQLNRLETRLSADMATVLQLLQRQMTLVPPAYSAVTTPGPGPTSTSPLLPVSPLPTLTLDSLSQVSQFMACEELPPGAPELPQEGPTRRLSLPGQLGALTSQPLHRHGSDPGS

**Q.** `O=C1NC(c2ccccc2)=N/C1=C\c1cc2ccccc2c2ccccc12` [SG6163F] was tested. Which inhibition at 10 µM ([1]; inhibition of tritiated dofetilide binding, only values >50% considered effective, read-out: % inhibit 1st assay) did it give?
**A.** The inhibition at 10 µM was 40.5%.

**Q.** And the inhibition at 10 µM ([1]; inhibition of tritiated dofetilide binding, only values >50% considered effective, read-out: % inhibit 2nd assay)?
**A.** The inhibition at 10 µM was 36.6%.

**Q.** And the inhibition at 10 µM ([1]; mean of two independent measurements, read-out: % inhibit Mean)?
**A.** The inhibition at 10 µM was 38.5%.

**Q.** What about the “binding to the hERG channel” value ([1]; inhibition of specific binding of [3H]dofetilide in vitro) of the same molecule?
**A.** Its value is “negligible”.

**Q.** How did the oxidative phosphorylation [2] turn out when `C[C@H]1O[C@@H](O[C@H]2[C@@H](O)C[C@H](O[C@H]3[C@@H](O)CC(O[C@H]4CC[C@@]5(C)[C@H](CC[C@@H]6[C@@H]5C[C@@H](O)[C@]5(C)[C@@H](C7=CC(=O)OC7)CC[C@]65O)C4)O[C@@H]3C)O[C@@H]2C)C[C@H](O)[C@@H]1O` (stereo partly drawn) [digoxin] was run?
**A.** Its oxidative phosphorylation is “improved oxidative phosphorylation”.

**Q.** For `C[C@]12CC[C@H](O)C[C@H]1CC[C@@H]1[C@@H]2CC[C@]2(C)[C@@H](C3=CC(=O)OC3)CC[C@]12O` [digitoxigenin], which “local level of mitochondrial superoxide anion” value [3] is on record?
**A.** Its value is “induced an elevation”.
